Laboratory results taken from patent US12528790B2, “Amide derivative having antiviral activity” (Shionogi & Co., Ltd., priority 2020, dated 2026).
Like-named read-outs stand apart in the source and are kept apart here.

System: RSV A2 strain
Assay: In vitro CPE (CytoPathic Effect) inhibition effect evaluation test, RSV type A
Format: cell-based
Description: The test sample is diluted in advance to an appropriate concentration with DMSO, and 3-fold series of serial dilutions were prepared on a 384-well plate (0.32 μL/well). HEp-2 cells (CCL-23; ATCC) adjusted at appropriate number (2.4×10^5 cells/mL) in 2% FBS E-MEM (prepared by adding kanamycin and FBS to Eagle's Minimum Essential Medium; Invitrogen) were added at 12.5 μL/well to the 384-well plate previously aliquoted with the test samples. The RSV A2 strain was diluted to an appropriate concentration in a culture medium and added to the 384-well plate containing the test sample at 12.5 μL/well. The culture medium was added additionally to the 384-well plate, and the test was started with 50 μL/well. Control wells were prepared with only virus-free culture medium. The plate was incubated in a 5% CO2 incubator at 37° C. for 4 days, and the plate was then placed at room temperature for 30 minutes. CellTiter-Glo (registered trademark) 2.0 assay (Promega) was added at 15 μL/well, mixed for 30 seconds, and the plate was placed for approximately 1 hour. The luminescent signal was then measured by EnVision (PerkinElmer). The inhibitory effect of the test agents on RSV-induced CPE was calculated as 0% and 100% inhibition rate for each sample concentration based on the level of remaining viable cells by CellTiter-Glo (registered trademark) 2.0, with the EC50 value for each compound calculated by nonlinear regression as the concentration that inhibits RSV-induced CPE by 50%. In the case of evaluation against RSV type B, RSV B (Wash/18537 strain) was infected in the same manner as the type A, cultured for 5 days, and quantitated in the same manner as for the A2 strain.

[1] = human respiratory syncytial virus, inhibitory effect against RSV type A (RSV A2 strain), HEp-2 cells, CPE inhibition, read-out: EC50
[2] = inhibitory effect against RSV type A (RSV A2 strain), HEp-2 cells, CPE inhibition, read-out: EC50

Structure (SMILES)	EC50 [1] [nM]	EC50 [2] [nM]	other results
O=C(NC(C(=O)O)C1CCCCC1)c1cnc(N2CCc3cc(OC4CCN(c5ncccn5)CC4)ccc32)nc1C(F)(F)F (racemic) [Compound I-50]	10 to 100		
O=C(NC1(C(=O)O)CCCCC1)c1cnc(N2CCc3cc(OCC4CN(CC(F)(F)F)CCO4)ccc32)nc1C(F)(F)F (racemic) [Compound I-58]	10 to 100		
O=C(NC1(C(=O)O)CCCCC1)c1cnc(N2CCc3cc(OCC4CN(c5ncccn5)CCO4)ccc32)nc1C(F)(F)F (racemic) [Compound I-66]	10 to 100		
NC(=O)C1CC1c1ccc2c(c1)CCN2c1ncc(C(=O)NC2(C(=O)O)C3CC4CC(C3)CC2C4)c(C(F)(F)F)n1 (racemic) [Compound I-215]	10 to 100		
CNC(=O)C1CC1c1ccc2c(c1)CCN2c1ncc(C(=O)NC2(C(=O)O)C3CC4CC(C3)CC2C4)c(C(F)(F)F)n1 (racemic) [Compound I-216]	10 to 100		
O=C(NC1(C(=O)O)C2CC3CC(C2)CC1C3)c1cnc(-c2cn(C3CCC(F)(F)CC3)c3ccc(OC4CCCN(C5COC5)C4)cc23)nc1C(F)(F)F (racemic) [Compound I-233]	10 to 100		
O=C(NC1(C(=O)O)C2CC3CC(C2)CC1C3)c1ccc(-c2cn(C3CCC(F)(F)CC3)c3cc(OC4CCCN(C5COC5)C4)ccc23)nc1C(F)(F)F (racemic) [Compound I-235]	< 10		
O=C(NC1(C(=O)O)C2CC3CC(C2)CC1C3)c1cnc(N2CC3(C=CCC3)c3cc(OC4CCN(c5ncccn5)CC4)ccc32)nc1C(F)(F)F (racemic) [Compound I-243]	< 10		
CC1(C)CCCC(NC(=O)c2cnc(-c3cn(C4CCC(F)(F)CC4)c4cc(OC5CCN(c6ncccn6)CC5)ccc34)nc2C(F)(F)F)(C(=O)O)C1 (racemic) [Compound I-262]	< 10		
CC(C)(C)C(NC(=O)c1cnc(-c2cn(C3CCC(F)(F)CC3)c3cc(OC4CCN(c5ncccn5)CC4)ccc23)nc1C(F)(F)F)C(=O)O (racemic) [Compound I-263]	< 10		
O=C(NC1(C(=O)O)C2CC3CC(C2)CC1C3)c1ccc(-c2cn(CC3CC3(F)F)c3cc(OC4CCN(c5ncccn5)CC4)ccc23)nc1C(F)(F)F (racemic) [Compound I-266]	< 10		
CC(NC(=O)c1cnc(-c2cn(C3CCC(F)(F)CC3)c3cc(OC4CCN(c5ncccn5)CC4)ccc23)nc1C(F)(F)F)(C(=O)O)C1CCCCC1 (racemic) [Compound I-267]	< 10		
O=C(NC1(C(=O)O)C2CC3CC(C2)CC1C3)c1cnc(N2C(=O)C3(C=CCC3)c3cc(OC4CCN(c5ncccn5)CC4)ccc32)nc1C(F)(F)F (racemic) [Compound I-269]			EC50 (human respiratory syncytial virus, HEp-2, 96 h, read-out: EC50, inhibitory effect against RSV type A (CPE inhibition)): 1.3 nM
CC(C)(C)CC(NC(=O)c1cnc(-c2cn(C3CCC(F)(F)CC3)c3cc(OC4CCN(c5ncccn5)CC4)ccc23)nc1C(F)(F)F)C(=O)O (racemic) [Compound I-271]	< 10		
O=C(NC1(C(=O)O)C2CC3CC(C2)CC1C3)c1cnc(-c2cn(C3CCC(F)(F)CC3)c3cc(OC4CCN(C5CCOC5)CC4)ccc23)nc1C(F)(F)F (racemic) [Compound I-277]	< 10		
O=C(NC1(C(=O)O)C2CC3CC(C2)CC1C3)c1cnc(N2CC3(CCN(C4COC4)C3)c3cc(OC4CCN(c5ncccn5)CC4)ccc32)nc1C(F)(F)F (racemic) [Compound I-333]		< 10	
O=C(NC1(C(=O)O)C2CC3CC(C2)CC1C3)c1cnc(N2CC3(CCN(c4ncc(F)cn4)C3)c3cc(OC4CCN(c5ncccn5)CC4)ccc32)nc1C(F)(F)F (racemic) [Compound I-361]		< 10	
CC(=O)N1CCC2(C1)CN(c1ncc(C(=O)NC3(C(=O)O)C4CC5CC(C4)CC3C5)c(C(F)(F)F)n1)c1ccc(OC3CCN(c4ncccn4)CC3)cc12 (racemic) [Compound I-362]		< 10	
CCNC(=O)N1CCC2(C1)CN(c1ncc(C(=O)NC3(C(=O)O)C4CC5CC(C4)CC3C5)c(C(F)(F)F)n1)c1ccc(OC3CCN(c4ncccn4)CC3)cc12 (racemic) [Compound I-364]		< 10	
O=C(NC1(C(=O)O)C2CC3CC(C2)CC1C3)c1ccc(-c2cn(C3CCCOC3)c3cc(OC4CCN(c5ncccn5)CC4)ccc23)nc1C(F)(F)F (racemic) [Compound I-367]	< 10		
O=C(NC1(C(=O)O)C2CC3CC(C2)CC1C3)c1cnc(-c2cn(C3CCOC3)c3cc(OC4CCN(c5ncc(F)cn5)CC4)ccc23)nc1C(F)(F)F (racemic) [Compound I-410]	< 10		

Structure (SMILES)	EC50 [1] [nM]	EC50 [2] [nM]	other results
CC(N1CCC(Oc2ccc3c(-c4ncc(C(=O)NC5(C(=O)O)C6CC7CC(C6)CC5C7)c(C(F)(F)F)n4)cn(C4CCC(F)(F)CC4)c3c2)CC1)C(F)(F)F (racemic) [Compound I-449]	< 10		
O=C(NC1(C(=O)O)C2CC3CC(C2)CC1C3)c1cnc(N2CC3(CCOCC3)c3cc(OCC(O)C(F)(F)F)ccc32)nc1C(F)(F)F (racemic) [Compound I-458]	< 10		
O=C(NC1(C(=O)O)C2CC3CC(C2)CC1C3)c1cnc(-c2cn(C3CCC(F)(F)C3)c3cc(OC4CCN(c5ncc(F)cn5)CC4)ccc23)nc1C(F)(F)F (racemic) [Compound I-470]	< 10		
COc1cccc(COc2ccc3c(c2)CCN3c2ncc(C(=O)NC3(C(=O)O)CC4CCC3C4)c(C(F)(F)F)n2)c1 (single isomer, unassigned) [Compound I-17]		< 10	
COc1cccc(COc2ccc3c(ccn3-c3ncc(C(=O)NC4(C(=O)O)CC5CCC4C5)c(C(F)(F)F)n3)c2)c1 (single isomer, unassigned) [Compound I-18]	< 10		
COc1cccc(COc2ccc3c(c2)CCN3c2ncc(C(=O)NC3(C(=O)O)CC4CCC3C4)c(C(F)(F)F)n2)c1 (single isomer, unassigned) [Compound I-19]		< 10	
O=C(NC1(C(=O)O)C2CC3CC1CC(O)(C3)C2)c1cnc(N2CCc3cc(OCCC4CCOCC4)ccc32)nc1C(F)(F)F (single isomer, unassigned) [Compound I-97]		10 to 100	
Cn1ncc2c1CCC(Oc1ccc3c(c1)C1(CCOCC1)CN3c1ncc(C(=O)NC3(C(=O)O)C4CC5CC(C4)CC3C5)c(C(F)(F)F)n1)C2 (single isomer, unassigned) [Compound I-191]		< 10	
COC12CC3CC(C1)C(NC(=O)c1cnc(N4CC5(CCOCC5)c5cc(OC6CCN(c7ncccn7)CC6)ccc54)nc1C(F)(F)F)(C(=O)O)C(C3)C2 (single isomer, unassigned) [Compound I-210]	< 10		
COC12CC3CC(C1)C(NC(=O)c1cnc(N4CC5(CCOCC5)c5cc(OC6CCN(c7ncccn7)CC6)ccc54)nc1C(F)(F)F)(C(=O)O)C(C3)C2 (single isomer, unassigned) [Compound I-211]		< 10	
O=C(NC1(C(=O)O)C2CC3CC(C2)CC1C3)c1cnc(N2CC3(CC4CCC(C3)O4)c3cc(OC4CCN(c5ncccn5)CC4)ccc32)nc1C(F)(F)F (single isomer, unassigned) [Compound I-300]		< 10	
CC1CC(Oc2ccc3c(-c4ncc(C(=O)NC5(C(=O)O)C6CC7CC(C6)CC5C7)c(C(F)(F)F)n4)cn(C4CCC(F)(F)CC4)c3c2)CCN1c1ncc(F)cn1 (single isomer, unassigned) [Compound I-385]	< 10		
CC1CC(Oc2ccc3c(-c4ncc(C(=O)NC5(C(=O)O)C6CC7CC(C6)CC5C7)c(C(F)(F)F)n4)cn(C4CCC(F)(F)CC4)c3c2)CCN1c1ncc(F)cn1 (single isomer, unassigned) [Compound I-386]		< 10	
CC1CN(c2ncccn2)CCC1Oc1ccc2c(-c3ncc(C(=O)NC4(C(=O)O)C5CC6CC(C5)CC4C6)c(C(F)(F)F)n3)cn(C3CCC(F)(F)CC3)c2c1 (single isomer, unassigned) [Compound I-391]	< 10		
CC1CN(c2ncccn2)CCC1Oc1ccc2c(-c3ncc(C(=O)NC4(C(=O)O)C5CC6CC(C5)CC4C6)c(C(F)(F)F)n3)cn(C3CCC(F)(F)CC3)c2c1 (single isomer, unassigned) [Compound I-392]		< 10	
O=C(NC1(C(=O)O)C2CC3CC(C2)CC1C3)c1cnc(N2c3cc(F)c(OC4CCN(c5ncccn5)CC4)cc3C3CCCCCC32)nc1C(F)(F)F (single isomer, unassigned) [Compound I-395]	< 10		
O=C(NC1(C(=O)O)C2CC3CC(C2)CC1C3)c1ccc(-c2cn(C3CCC(F)CC3)c3cc(OC4CCN(c5ncc(F)cn5)CC4)ccc23)nc1C(F)(F)F (single isomer, unassigned) [Compound I-398]		< 10	
CC1CN(c2ncccn2)CCC1Oc1ccc2c(-c3ncc(C(=O)NC4(C(=O)O)C5CC6CC(C5)CC4C6)c(C(F)(F)F)n3)cn(C3CCC(F)(F)CC3)c2c1 (single isomer, unassigned) [Compound I-404]		< 10	
CC1CN(c2ncccn2)CCC1Oc1ccc2c(-c3ncc(C(=O)NC4(C(=O)O)C5CC6CC(C5)CC4C6)c(C(F)(F)F)n3)cn(C3CCC(F)(F)CC3)c2c1 (single isomer, unassigned) [Compound I-405]		< 10	
COC1CCC(n2cc(-c3ncc(C(=O)NC4(C(=O)O)C5CC6CC(C5)CC4C6)c(C(F)(F)F)n3)c3ccc(OC4CCN(c5ncc(F)cn5)CC4)cc32)CC1 (single isomer, unassigned) [Compound I-424]		< 10	
